Data as given in patent US20050234122A1, “Prevention of and countermeasures against viral infection” (LIFE SCIENCE INSTITUTE, LTD., priority 2004, published 2005).

What was measured:
[1] = tested on: immune function; settings: cited from earlier work
[2] = rats suffering from artificial peritonitis; cited from earlier work
[3] = Oxidation of vitamin C dissolved in a juice; assay type: physicochemical; settings: within about 90 minutes
[4] = Viscosity of mucopolysaccharides after adding vitamin C (Oswald viscometer); settings: vitamin C added to mucopolysaccharides
[5] = Activity of vitamin C in drip infusion depending on pH; assay type: physicochemical; settings: drip infusion with a pH of 7.0 or greater

SMILES | decreased weight of the thymus gland and decreased T-cells' capability of blast transformation ([1]; rat suffering from fracture) | T-cells' capability of blast transformation ([1]; rats) | weight of the thymus gland ([1]; rats) | survivorship [2] | vitamin C that becomes an oxidized derivative [3] [%] | viscosity of the mixture [4] | activity of vitamin C [5]
N=C(N)NCCC[C@H](N)C(=O)O [arginine] | recovered | increases | increases | remarkably increased survivorship | – | – | –
O=C1O[C@H]([C@@H](O)CO)C(O)=C1O [vitamin C, ascorbic acid] | – | – | – | – | 50 | gradually decreases | decreases
